# Assay results reported in a melting point compilation (Tetko et al.; mined from patent text by program, amines drawn as free bases though some values may be those of a salt).
row,Structure (SMILES),melting point
1,O=c1n(CCCF)nnn1-c1cc([N+](=O)[O-])c(Cl)cc1F,80 to 81 °C
2,COc1cc2c(cc1OC)-c1c(C=O)c(C#N)cn1CC2,220 to 221 °C
3,COc1cc(I)c(I)cc1OC,134 to 136 °C
4,CCOc1nc2cccc(C(=O)OCOC(=O)C(C)(C)C)c2n1Cc1ccc(-c2ccccc2-c2nnn[nH]2)cc1,104 to 106 °C
5,COP(=O)(CC(COc1cccc(C(F)(F)F)c1)=NNC(N)=O)OC,132 to 133 °C
6,O=C(O)Cc1coc2cc(OCc3cc(-c4ccc(Cl)cc4)on3)ccc12,193 to 194 °C
7,COc1ccc(-c2[nH]cc(C(C)=O)c2N)cc1,198 to 200 °C
8,Cc1nc2c(N)nc3ccccc3c2n1CCCCNS(C)(=O)=O,229 to 230 °C
9,CC(=O)Oc1c(C)sc2ccc(C(F)(F)F)cc12,59 to 60 °C
10,COc1cccc(Oc2nc(N)n3nc(-c4ccco4)nc3n2)c1,226 to 227 °C
11,O=C(Nc1cc(Cl)c([N+](=O)[O-])cc1O)C(=O)Nc1cc(Cl)c([N+](=O)[O-])cc1O,302 °C
12,O=C1NN=C(c2cccc([N+](=O)[O-])c2)C2CC12 (stereo unspecified),220 to 221 °C
13,O=C(O)COc1ccc(CC2SC(=O)NC2=O)cc1 (stereo unspecified),181 to 183 °C
14,O=C1CCC(=O)C1C(=O)c1ccc(Cl)cc1Cl,109 to 113 °C
15,C=Cc1ccc(-n2cnc([N+](=O)[O-])n2)c(C#N)c1,103 to 105 °C
16,Cn1c2c(c3cc(O)ccc31)CC(CO)C2 (stereo unspecified),153 to 154 °C
17,CN1CCC(O)(CNC=O)CC1,116 to 122 °C
18,O=Cc1cc2cc(Cl)c(Cl)cc2[nH]1,188 to 190 °C
19,CCCCOc1cc(CCC(=O)O)ccc1-c1cccc(N(C)C(=O)Nc2ccccc2)c1,134 to 136 °C
20,COCCN1CC(c2ccccc2)NC1=O (stereo unspecified),82 to 83 °C
21,CCOC(=O)Cn1nc(-c2ccccc2O)nc1-c1ccccc1O,172 to 174 °C
22,Nc1c(NCc2ccccc2)ccnc1Cl,176 to 179 °C
23,Cn1c(-c2ccccc2S(=O)c2nc3ccccc3[nH]2)nc2ccccc21 (stereo unspecified),164 °C
24,COc1ccc2c(c1)CC(C(F)(F)F)N2C(=O)Nc1ccc(Oc2cccnc2)nc1 (stereo unspecified),202 to 204 °C
25,O=CC1(Nc2ccccc2)CCN(CCc2ccccc2)CC1,83 to 84 °C
26,CCC(CC)Cn1c(=O)c(=O)[nH]c2ccc(NC(C)=O)cc21,168 to 170 °C

row,Structure (SMILES),melting point
1,CCN(CC)Cc1cc(C(N)=O)cc(Br)c1N,140 to 142 °C
2,Nc1ncc(-c2ccccc2COc2ccccc2)s1,154 °C
3,Cc1nc2cc(N)c(N)cc2n1C,212 °C
4,CCCC(C)(Sc1ccc(OCCn2c(CC)nc3ccccc3c2=O)cc1)C(=O)OCC (stereo unspecified),148 to 150 °C
5,CCOc1ccccc1C1(O)C(=O)Nc2cc(C)c(Cl)cc21 (stereo unspecified),253 °C
6,COC(=O)C(CC(=S)c1ccc(C)cc1)C(C)=O (stereo unspecified),110 to 112 °C
7,CC(C)(C)OC(=O)N[C@H]1CCCC[C@@H]1O,103 to 105 °C
8,O=C1C(=O)c2ccccc2C2=C1SCC1(CCC(NC(=O)c3cccc(C(F)(F)F)c3)CC1)O2 (stereo unspecified),266 to 267 °C
9,CCOC(=O)C1(C(=O)Nc2ccc(Br)cc2C)CC1,89.5 to 90 °C
10,Clc1ncnc2c1ncn2C1CC=CC1,56 to 58 °C
11,C=CCNC1=NS(=O)(=O)c2cnccc2N1,206 to 208 °C
12,CN1Cc2c(-c3nc(CN(CC4CC4)CC4CC4)no3)ncn2-c2ccccc2C1=O,170 to 174 °C
13,CCCCCCCCCCCCCCCCCCOc1cc(C(=O)OC)cc(N(CC(=O)O)CC(=O)O)c1,119 to 123 °C
14,CCN1c2ncc(CO)cc2C(=O)N(C)c2ccc(F)nc21,40 °C
15,Nc1nc2ccccc2n1-c1cccc(-c2nccs2)c1,224 to 226 °C
16,O=C(Nc1ccncc1)OC1CN2CCC1CC2 (stereo unspecified),149 to 151 °C
17,COc1cc(C(=O)c2ccc(Cl)cc2)cc([N+](=O)[O-])c1O,128 to 131 °C
18,O=C(O)COc1cccc2c1CCc1sc(S(=O)(=O)CC=Cc3ccccc3)nc1-2,210 to 214 °C
19,N#Cc1cc(N)ccc1N(CCO)CCO,38 °C
20,COc1ccc(S(=O)(=O)Nc2ccccc2NC(=O)c2cccc(O)c2)cc1,191 to 192 °C
21,O=C(O)c1cn(-c2ccc(F)cc2F)c2nc(S(=O)(=O)c3ccccc3)c(F)cc2c1=O,252 to 258 °C
22,CC(O)CNCc1cc2c(=O)c(C(=O)NCc3ccc(Cl)cc3)cn(C)c2o1 (stereo unspecified),172 to 173 °C
23,C[C@H]1CCCC(C)(C)[C@]1(C)C(=O)c1ccc(F)cc1,49 to 51 °C
24,Oc1nsc(SCc2ccc(Cl)cc2)n1,138 °C
25,CCOC(=NC(=O)c1ccc(Cl)cc1)N1Cc2ccccc2-c2ccccc2C1,106 to 107 °C
26,Cc1oc(-c2ccccc2)nc1COc1ccc(Cn2cc(CO)c(C(C)C)n2)cc1,98 to 99 °C

row,Structure (SMILES),melting point
1,CCOC(=O)c1cn(-c2nc(SC(C)C)nc(C(F)(F)F)c2I)nc1C(F)(F)F,107 to 108 °C
2,CC(C)(C)C(=O)C(Oc1cccc(Cl)n1)n1cncn1 (stereo unspecified),103 to 105 °C
3,O=[N+]([O-])c1ccc(Br)cc1-c1cc(-c2cccc(Br)c2)on1,195 to 197 °C
4,CCC(C)N(C)C(=O)c1cc2ccsc2c(-c2ccccc2)n1 (stereo unspecified),117 °C
5,COc1ncc(Cl)cc1C(O)C(N)=O (stereo unspecified),110 to 113 °C
6,O=C(OCc1ccccc1)c1ccc2cc(OCc3ccccc3)ccc2c1,97 to 98 °C
7,Cc1cc(OCCNC(=O)C2Cc3ccccc3N2S(=O)(=O)c2ccc(-c3cc(C(F)(F)F)ccc3Cl)cc2)ccc1CC(=O)O (stereo unspecified),110 to 115 °C
8,CNC(=S)NS(=O)(=O)c1cc(CCNC(=O)c2cc(Cl)ccc2OC)ccc1OCCOC,134 °C
9,CCC(=CC(CSc1nnnn1C)=NO)C(C)[N+](=O)[O-] (stereo unspecified),83 to 84 °C
10,N#CCC(O)(Cn1cncn1)c1ccc(Cl)cc1Cl (stereo unspecified),217 to 219 °C
11,C[Si]1(C)CCCCCCCCCC[Si](C)(C)O[Si](C)(C)CCCCCCCCCC[Si](C)(C)O1,90 °C
12,CC(C)(O)C(=O)Nc1ccc(S(=O)(=O)c2ccccc2)cc1F,156 °C
13,c1ccc2nc(CSc3nc4cccc5c4n3CCC5)ccc2c1,125 to 126 °C
14,Cc1ccc(C(=O)OCCO)cc1-n1c(C)cc(OCc2ccc(F)cc2CNC(=O)Nc2cc(C(C)(C)C)nn2-c2cccc(OCCO)c2)c(Cl)c1=O,180 to 181 °C
15,O=[N+]([O-])C=C1NCCCN1c1ccc(Cl)nc1,202 °C
16,CC(C)NC(=O)C(C#N)=Cc1cc(O)c(O)c([N+](=O)[O-])c1,243 to 245 °C
17,CN(C)CC(O)COc1ccccc1CCCCc1ccccc1C(N)=O (stereo unspecified),149 to 151 °C
18,Cc1cccc(C(=O)Cc2ccccc2)c1C,52 to 53 °C
19,CC(C)(C)NC(=O)[C@@H]1CCCC[C@H]1C[C@@H](O)[C@H](Cc1ccccc1)NC(=O)[C@H](CC(N)=O)NC(=O)c1cc(Cl)cc(Cl)c1,220 to 226 °C
20,O=C(Nc1cccc(-n2nc(C(F)(F)F)cc2C(F)(F)F)c1)c1cc([N+](=O)[O-])ccc1Cl,147 to 152 °C
21,COc1cc(OC)nc(NC(=O)NS(=O)(=O)c2ccccc2CCBr)n1,163 to 166 °C
22,O=C(/C=C/c1cccc(F)c1)NC1CC1,90 to 91 °C
23,CN(C)c1ccc2c(c1)OCCC2=O,109 to 120 °C
24,CC(C)c1cc(Oc2ccc(Cl)c(Cl)c2)nc(C(C)C)c1N=CN(C)C,102 to 103 °C
25,O=C(O)C(=O)CC(=O)c1cccn1Cc1ccc2ccccc2c1,160 to 162 °C
26,O=C(O)c1ccccc1C(=O)NCCCn1ccnc1,160 to 162 °C

row,Structure (SMILES),melting point
1,O=C(Nc1ccc(CN2CCNCC2)cc1)c1cc(=O)c2ccccc2o1,138 to 140 °C
2,CC(C)(C)N(C=O)N=NNC=O,103 to 105 °C
3,COC(=O)c1ccc(C(C)(O)c2cc3cc(C(F)(F)F)ccc3n2S(=O)(=O)c2cccc(C(C)(C)C)c2)cc1 (stereo unspecified),70 °C
4,CCOC(=O)c1cccc2nc(OC)n(Cc3ccc(-c4ccccc4C#N)cc3)c12,160 to 161 °C
5,CCOC(=O)C(=CNC1CC1)C(=O)c1c(F)cc(F)c(F)c1F,107 to 108 °C
6,Cc1c(C#N)cc2ccc3c(c2c1Br)C(C)(C)C(=O)O3,235 to 237 °C
7,CC(=O)OC1C(OC(=O)c2ccc(N)cc2)C=C(C)C(=O)CC1(C)C (stereo unspecified),158 to 160 °C
8,COc1cc(OC)c2c(=O)cc(-c3ccc(OC)c(I)c3)oc2c1,209 to 210 °C
9,CCCNC(=O)Nc1ccccc1,106 to 107 °C
10,COn1c(Br)c(Br)c(C#N)c1-c1ccc(Cl)cc1,190 °C
11,Nc1nc2cc(OCc3ccccc3)ccc2c2c1ncn2CCOc1ccccc1,200 to 201 °C
12,COc1ccc(-c2ccc3c(C(=O)N(C)C)cccc3c2)cc1,113 to 116 °C
13,NCCOCC(O)c1ccc2sccc2c1 (stereo unspecified),87 to 90.5 °C
14,CCOC(=O)c1cn(CC)c2c(F)c(F)c(F)c(C)c2c1=O,197 to 198 °C
15,CC(=O)Nc1ccc(CNC(=O)c2ccccc2)cc1,175 to 177 °C
16,CCCCC(C)c1cc(O)c2c(c1)OC(C)(C)CC2C1=CCN(Cc2ccc3ccccc3c2)CC1 (stereo unspecified),49 to 52 °C
17,Cc1oc(-c2ccccc2)nc1CCOc1ccc(C[C@@H](C(=O)O)N2CCN(S(=O)(=O)c3ccccc3F)CC2)cc1,170 to 172 °C
18,CNC(=O)[C@@H](NC(=O)[C@@H](CC(=O)OCc1ccccc1)n1ccc(-c2ccncc2)c1)C(C)(C)C,130 to 133 °C
19,CC(C)Oc1cc(Oc2ccc(C(F)(F)F)cn2)ccc1CCCOc1cc(CCC(=O)O)n(-c2ccccc2)n1,130 °C
20,COc1ccc(S(=O)(=O)C2(C(=O)NO)CCN(Cc3ccc(F)cc3)CC2)cc1,176 to 178 °C
21,COc1ccc(CN(C)CCCc2ccc(NC(=O)c3cccc4c(=O)c5ccccc5[nH]c34)cc2)cc1,155 °C
22,C=CCOc1cccc(-c2n[nH]c(-c3ccccc3C)n2)c1,72 to 75 °C
23,CON=Cc1ccc2c(c1)ncn2-c1cccc(-c2ccncn2)c1,180 to 182 °C
